Assay results from US10160762B2, “6-alkyl dihydropyrazolopyrimidinone compounds as PDE2 inhibitors” (Merck Sharp & Dohme Corp., priority 2015, dated 2018).

Biological target: T1, human PDE2A1 (Homo sapiens, UniProt O00408)
T1 construct: GST; purchased BPS Bioscience (San Diego, Calif.) 60020; host or cells: insect cells
Test: IMAP FP PDE assay, human PDE2A1
Format: biochemical
Settings: Lab B; read-out: Human PDE2 Ki (nM) Lab B
Experimental: Selectivity for PDE2, as compared to other PDE families, was assessed using the IMAP® technology. Human PDE10A2 enzyme was prepared from cytosolic fractions of transiently transfected HEK cells. All other PDE's were GST Tag human enzyme expressed in insect cells and were obtained from BPS Bioscience (San Diego, Calif.): PDE1A (Cat#60010), human PDE2A1 (Cat#60020), PDE3A (Cat#60030), PDE4A1A (Cat#60040), PDE5A1 (Cat#60050), PDE6C (Cat#60060), PDE7A (Cat#60070), PDE8A1 (Cat#60080), PDE9A2 (Cat#60090), PDE11A4 (Cat#60110).
Assays for PDE 1 through 11 were performed in parallel at room temperature in 384-well microtiter plates with an incubation volume of 20.2 μL. Solutions of test compounds were prepared in DMSO and serially diluted with DMSO to yield 30 μL of each of ten solutions differing by 3-fold in concentration, at 32 serial dilutions per plate. […] A Labcyte POD 810 (Labcyte, Sunnyvale, Calif.) was used to dispense 200 nL from each well of the titration plate to make eleven copies of the assay plate for each titration, one copy for each PDE enzyme. A solution of each enzyme (dilution from aliquots, sufficient to produce 20% substrate conversion) and a separate solution of FAM-labeled cAMP or FAM-labeled cGMP from Molecular Devices (Sunnyvale, Calif., product # R7506 or cGMP#R7508), at a final concentration of 50 nM were made in the assay buffer (10 mM Tris HCl, pH 7.2, 10 mM MgCl2, 0.05% NaN3 0.01% Tween-20, and 1 mM DTT). Note that the substrate for PDE2 is 50 nM FAM cAMP containing 1000 nM of cGMP. The enzyme and the substrate were then added to the assay plates in two consecutive additions of 10 μL and then shaken to mix. The reaction was allowed to proceed at room temperature for 60 minutes. A binding solution was then made from the kit components, comprised of 80% Solution A, 20% Solution B and binding reagent at a volume of 1/600 the total binding solution. The enzymatic reaction was stopped by addition of 60 μL of the binding solution to each well of the assay plate. The plates were sealed and shaken for 10 seconds. The plates were incubated at room temperature for one hour, then the parallel and perpendicular fluorescence was measured using a Tecan Genios Pro plate reader (Tecan, Switzerland). The apparent inhibition constants for the compounds against all 11 PDE's was determined from the parallel and perpendicular fluorescent readings as described for PDE10 FP assay using the following apparent KM values for each enzyme and substrate combination: PDE1A (FAM cGMP) 70 nM, human PDE2A1 (FAM cAMP) 10,000 nM, PDE3A (FAM cAMP) 50 nM, PDE4A1A (FAM cAMP) 1500 nM, PDE5A1 (FAM cGMP) 400 nM, PDE6C (FAM cGMP) 700 nM, PDE7A (FAM cAMP) 150 nM, PDE8A1 (FAM cAMP) 50 nM, PDE9A2 (FAM cGMP) 60 nM, PDE10A2 (FAM cAMP) 150 nM, PDE11A4 (FAM cAMP) 1000 nM. The intrinsic PDE2 inhibitory activity of a compound which may be used in accordance with the present invention may be determined by these assays.

T1 sequence (O00408 1-920 isoform O00408-2): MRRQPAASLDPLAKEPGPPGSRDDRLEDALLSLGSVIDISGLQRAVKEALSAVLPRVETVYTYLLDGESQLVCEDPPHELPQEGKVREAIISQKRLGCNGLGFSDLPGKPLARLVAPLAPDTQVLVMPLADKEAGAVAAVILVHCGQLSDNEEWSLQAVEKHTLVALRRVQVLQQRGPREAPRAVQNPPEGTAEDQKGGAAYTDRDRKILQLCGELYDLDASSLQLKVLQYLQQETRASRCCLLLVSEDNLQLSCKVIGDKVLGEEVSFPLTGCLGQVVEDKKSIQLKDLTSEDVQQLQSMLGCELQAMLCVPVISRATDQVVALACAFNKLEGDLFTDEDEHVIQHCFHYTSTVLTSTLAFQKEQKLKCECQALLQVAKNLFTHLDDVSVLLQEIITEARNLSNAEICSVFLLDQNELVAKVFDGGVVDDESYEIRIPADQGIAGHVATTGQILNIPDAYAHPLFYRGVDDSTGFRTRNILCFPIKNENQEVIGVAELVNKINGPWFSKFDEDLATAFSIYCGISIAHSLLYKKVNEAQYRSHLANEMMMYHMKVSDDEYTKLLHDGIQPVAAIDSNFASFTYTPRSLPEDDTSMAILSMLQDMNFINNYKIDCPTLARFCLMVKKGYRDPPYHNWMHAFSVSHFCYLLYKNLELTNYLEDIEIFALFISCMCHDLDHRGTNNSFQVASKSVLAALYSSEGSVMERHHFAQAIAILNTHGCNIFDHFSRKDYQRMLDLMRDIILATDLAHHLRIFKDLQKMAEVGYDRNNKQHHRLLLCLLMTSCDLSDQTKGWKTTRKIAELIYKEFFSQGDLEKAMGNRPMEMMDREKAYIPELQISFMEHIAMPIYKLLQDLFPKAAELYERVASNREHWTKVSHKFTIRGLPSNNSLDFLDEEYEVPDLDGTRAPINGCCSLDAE

Compound | Ki [nM]
Cc1nc2c(c(CO)nn2C(C)c2ccc3c(c2)OC(F)(F)O3)c(=O)[nH]1 (single isomer, unassigned) [Example 114, (R)- or (S)-1-(1-(2,2-Difluorobenzo[d][1,3]dioxol-5-yl)ethyl)-3-(hydroxymethyl)-6-methyl-1H-pyrazolo[3,4-d]pyrimidin-4(5H)-one] | 1210
Cc1nc2c(c(CO)nn2C(C)c2ccc(C3(C)CC3)cc2)c(=O)[nH]1 (single isomer, unassigned) [Example 143, (R)- or (S)-3-(Hydroxymethyl)-6-methyl-1-(1-(4-(1-methylcyclopropyl)phenyl)ethyl)-1H-pyrazolo[3,4-d]pyrimidin-4(5H)-one] | 193
COc1cccc(Cc2nc3c(c(C#N)nn3C(C)c3ccc(C(F)(F)F)cc3)c(=O)[nH]2)c1 (single isomer, unassigned) [Example 349] | 373
Cc1nc2c(c(C(F)F)nn2C(C)c2ccc(C(F)(F)F)cc2Cl)c(=O)[nH]1 (single isomer, unassigned) [Example 183, (R)- or (S)-1-(1-(2-Chloro-4-(trifluoromethyl)phenyl)ethyl)-3-(difluoromethyl)-6-methyl-1H-pyrazolo[3,4-d]pyrimidin-4(5H)-one] | 547
COc1cccc(Cc2nc3c(c(C#N)nn3C(C)c3ccc(C(F)(F)F)cc3)c(=O)[nH]2)c1 (single isomer, unassigned) [Example 348] | 4.7
COCc1nc2c(c(C(F)F)nn2C(C)c2ccc(C(F)(F)F)cc2)c(=O)[nH]1 (single isomer, unassigned) [Example 188, (S)- or (R)-3-(Difluoro-methyl)-6-(methoxymethyl)-1-{1-[4-(trifluoromethyl)phenyl]ethyl}-1,5-dihydro-4H-pyrazolo-[3,4-d]pyrimidin-4-one] | 2.6
Cc1nc2c(c(C(F)F)nn2C(C)c2ccc(C3(C(F)(F)F)CC3)cc2)c(=O)[nH]1 (centres unmarked) [Example 164, 3-(Difluoromethyl)-6-methyl-1-(1-(4-(1-(trifluoromethyl)cyclopropyl)phenyl)ethyl)-1H-pyrazolo[3,4-d]pyrimidin-4(5H)-one] | 8.2
Cc1nc2c(c(Br)nn2C(C)c2ccc(C(F)(F)F)cc2)c(=O)[nH]1 (single isomer, unassigned) [Example 325] | 3.7
Cc1nc2c(c(C(F)F)nn2C(C)c2ccc(C(F)(F)F)cc2Cl)c(=O)[nH]1 (single isomer, unassigned) [Example 184, (S)- or (R)-1-(1-(2-Chloro-4-(trifluoro-methyl)phenyl)-ethyl)-3-(difluoromethyl)-6-methyl-1H-pyrazolo[3,4-d]pyrimidin-4(5H)-one] | 1.6
Cc1nc2c(c(C(F)F)nn2C(C)c2ccc(C(F)(F)F)c(F)c2)c(=O)[nH]1 (single isomer, unassigned) [Example 168, (S)- or (R)-3-(Difluoromethyl)-1-(1-(3-fluoro-4-(trifluoromethyl)phenyl)ethyl)-6-methyl-1H-pyrazolo[3,4-d]pyrimidin-4(5H)-one] | 1.4
Cc1nc2c(c(CO)nn2C(C)c2ccc(C(F)(F)C(F)(F)F)cc2)c(=O)[nH]1 (single isomer, unassigned) [Example 98, (R)- or (S)-3-(Hydroxymethyl)-6-methyl-1-(1-(4-(perfluoroethyl)phenyl)ethyl)-1H-pyrazolo[3,4-d]pyrimidin-4(5H)-one] | 591
Cc1nc2c(c(CO)nn2C(C)c2ccc(C(F)(F)F)nn2)c(=O)[nH]1 (single isomer, unassigned) [Example 145, (R)- or (S)-3-(Hydroxymethyl)-6-methyl-1-(1-(6-(trifluoromethyl)pyridazin-3-yl)ethyl)-1H-pyrazolo[3,4-d]pyrimidin-4(5H)-one] | > 2960
Cc1nc2c(c(CO)nn2C(C)c2ccc(C(F)(F)F)cc2Cl)c(=O)[nH]1 (single isomer, unassigned) [Example 18, (R)- or (S)-1-(1-(2-Chloro-4-(trifluoromethyl)phenyl)ethyl)-3-(hydroxymethyl)-6-methyl-1H-pyrazolo[3,4-d]pyrimidin-4(5H)-one] | ~2850
Cc1nc2c(c(CO)nn2C(C)c2ccc(OC(F)F)c(F)c2)c(=O)[nH]1 (single isomer, unassigned) [Example 113, (S)- or (R)-1-(1-(4-(Difluoromethoxy)-3-fluorophenyl)ethyl)-3-(hydroxymethyl)-6-methyl-1H-pyrazolo[3,4-d]pyrimidin-4(5H)-one] | 3
Cc1nc2c(c(CO)nn2C(C)[C@H]2CC[C@H](C(F)(F)F)CC2)c(=O)[nH]1 (single isomer, unassigned) [Example 125, (S)- or (R)-3-(Hydroxymethyl)-6-methyl-1-((trans)-4-(trifluoro-methyl)cyclohexyl)ethyl)-1H-pyrazolo[3,4-d]pyrimidin-4(5H)-one] | 26
Cc1nc2c(c(C(=O)N3CCOCC3)nn2C(C)c2ccc(C(F)(F)F)cc2)c(=O)[nH]1 (single isomer, unassigned) [Example 270, (R)- or (S)-6-Methyl-3-(morpholine-4-carbonyl)-1-(1-(4-(trifluoromethyl)phenyl)ethyl)-1H-pyrazolo[3,4-d]pyrimidin-4(5H)-one] | > 2960
Cc1nc2c(c(C(=O)O)nn2[C@@H](C)c2ccc(C(F)(F)F)cc2)c(=O)[nH]1 [Example 323, (S)-6-Methyl-4-oxo-1-(1-(4-(trifluoromethyl)phenyl)ethyl)-4,5-dihydro-1H-pyrazolo[3,4-d]pyrimidine-3-carboxylic acid] | 798
Cc1nc2c(c(CO)nn2C2CCc3cc(C(F)(F)F)ccc32)c(=O)[nH]1 (single isomer, unassigned) [Example 103, (S)- or (R)-3-(Hydroxymethyl)-6-methyl-1-(5-(trifluoromethyl)-2,3-dihydro-1H-inden-1-yl)-1H-pyrazolo[3,4-d]pyrimidin-4(5H)-one] | 19
COc1cccc(Cc2nc3c(c(-c4nnco4)nn3C(C)c3ccc(C(F)(F)F)cc3)c(=O)[nH]2)c1 (single isomer, unassigned) [Example 345, (S)- or (R)-6-(3-Methoxybenzyl)-3-(1,3,4-oxadiazol-2-yl)-1-(1-(4-(trifluoromethyl)phenyl)ethyl)-1,5-dihydro-4H-pyrazolo[3,4-d] pyrimidin-4-one] | 0.15
Cc1nc2c(c(O)nn2[C@@H](C)c2ccc(C(F)(F)F)cc2)c(=O)[nH]1 [Example 329, (S)-3-Hydroxy-6-methyl-1-(1-(4-(trifluoromethyl)phenyl)ethyl)-1,5-dihydro-4H-pyrazolo[3,4-d]pyrimidin-4-one] | 2080
Cc1nc2c(c(CO)nn2C(C)c2ccc(C(F)(F)F)cc2C)c(=O)[nH]1 (single isomer, unassigned) [Example 108, (R)- or (S)-3-(Hydroxymethyl)-6-methyl-1-(1-(2-methyl-4-(trifluoromethyl)phenyl)ethyl)-1H-pyrazolo[3,4-d]pyrimidin-4(5H)-one] | ~1280
Cc1nc2c(c([C@@H](C)CO)nn2[C@@H](C)c2ccc(C(F)(F)F)cc2)c(=O)[nH]1 (single isomer, unassigned) [Example 320] | 1.2
CC(C)Cc1nc2c(c(CO)nn2C(C)c2ccc(C(F)(F)F)cc2)c(=O)[nH]1 (single isomer, unassigned) [Example 306, (S)- or (R)-3-(Hydroxy-methyl)-6-isobutyl-1-(1-(4-(trifluoromethyl)phenyl)ethyl)-1,5-dihydro-4H-pyrazolo[3,4-d]pyrimidin-4-one] | 568
